Reference: patent US9227957B2, “Pesticidal pyrimidine compounds” (Dow AgroSciences, LLC, priority 2012, dated 2016)

Columns and labels:
Conditions in all cases: 120 h, read-out: percent control or mortality rate
[1] = test system: beet armyworm (Spodoptera exigua); experiment: 128 well diet tray insecticidal bioassay, beet armyworm
[2] = test system: corn earworm (Helicoverpa zea); experiment: 128 well diet tray insecticidal bioassay, corn earworm
[3] = test system: cabbage looper (Trichoplusia ni (Huebner)); experiment: 128 well diet tray insecticidal bioassay, cabbage looper

| SMILES | mortality at 50 µg/cm2 [1] [%] | mortality at 50 µg/cm2 [2] [%] | mortality at 50 µg/cm2 [3] [%] |
| --- | --- | --- | --- |
| CC(=O)OCN(C(=O)Nc1ccc(C(F)(F)F)s1)c1nc(OCC(F)(F)F)cc(OCC(F)(F)F)n1 [Compound 5] | 80 to 100 | 80 to 100 | – |
| COc1c(Cl)csc1N(C)C(=O)Nc1nc(OCC(F)(F)F)cc(OCC(F)(F)F)n1 [Compound 35] | – | – | < 80 |
| CN(C(=O)N(COCc1ccccc1)c1nc(OCC(F)(F)F)cc(OCC(F)(F)F)n1)c1ccc(C(F)(F)F)s1 [Compound 9] | 80 to 100 | 80 to 100 | – |
| O=C(Nc1nc(OCC(F)(F)F)c(F)c(OCC(F)(F)F)n1)Nc1ccc(C(F)(F)F)s1 [Compound 12] | 80 to 100 | 80 to 100 | – |
| O=C(Nc1nc(OCC(F)(F)F)cc(OCC(F)(F)F)n1)Nc1sccc1Cl [Compound 32] | 80 to 100 | – | – |
| COCN(C(=O)N(C)c1ccc(C(F)(F)F)s1)c1nc(OCC(F)(F)F)cc(OCC(F)(F)F)n1 [Compound 7] | 80 to 100 | 80 to 100 | – |
| Cc1ccsc1NC(=O)Nc1nc(OCC(F)(F)F)cc(OCC(F)(F)F)n1 [Compound 37] | 80 to 100 | – | < 80 |
| Cc1ccsc1N(C)C(=O)Nc1nc(OCC(F)(F)F)cc(OCC(F)(F)F)n1 [Compound 31] | – | – | < 80 |
| COCN(C(=O)Nc1ccc(C(F)(F)F)s1)c1nc(OCC(F)(F)F)c(F)c(OCC(F)(F)F)n1 [Compound 15] | 80 to 100 | – | – |
| O=C(Nc1nc(OCC(F)(F)F)cc(OCC(F)(F)F)n1)Nc1ccc(C(F)(F)F)s1 [Compound 1, 3-(4,6-bis(2,2,2-trifluoroethoxy)pyrimidin-2-yl)-1-(5-(trifluoromethyl)thiophen-2-yl)urea] | < 80 | 80 to 100 | – |
| CC(=O)OCN(C(=O)N(C)c1ccc(C(F)(F)F)s1)c1nc(OCC(F)(F)F)cc(OCC(F)(F)F)n1 [Compound 8] | 80 to 100 | 80 to 100 | – |
| CN(C(=O)Nc1nc(OCC(F)(F)F)cc(OCC(F)(F)F)n1)c1ccc(C(F)(F)F)s1 [Compound 2, 3-(4,6-bis(2,2,2-trifluoroethoxy)pyrimidin-2-yl)-1-methyl-1-(5-(trifluoromethyl)thiophen-2-yl)urea] | 80 to 100 | 80 to 100 | – |
| CN(C(=O)Nc1nc(OCC(F)(F)F)c(F)c(OCC(F)(F)F)n1)c1ccc(C(F)(F)F)s1 [Compound 13] | 80 to 100 | 80 to 100 | – |
| CC(=O)OCN(C(=O)N(C)c1ccc(C(F)(F)F)s1)c1nc(OCC(F)(F)F)c(F)c(OCC(F)(F)F)n1 [Compound 19] | 80 to 100 | 80 to 100 | – |
| CN(C(=O)Nc1nc(OCC(F)(F)F)cc(OCC(F)(F)F)n1)c1cc(-c2ccc(Cl)cc2)cs1 [Compound 26] | 80 to 100 | – | 80 to 100 |
| COc1c(Cl)csc1NC(=O)Nc1nc(OCC(F)(F)F)cc(OCC(F)(F)F)n1 [Compound 25] | 80 to 100 | – | 80 to 100 |
| O=C(Nc1nc(OCC(F)(F)F)cc(OCC(F)(F)F)n1)Nc1sccc1Br [Compound 45] | < 80 | – | – |
| COCN(C(=O)N(COCc1ccccc1)c1nc(OCC(F)(F)F)cc(OCC(F)(F)F)n1)c1ccc(C(F)(F)F)s1 [Compound 10, 3-(benzyloxymethyl)-3-(4,6-bis(2,2,2-trifluoroethoxy)pyrimidin-2-yl)-1-(methoxymethyl)-1-(5-(trifluoromethyl)thiophen-2-yl)urea] | 80 to 100 | 80 to 100 | – |
| Cc1csc(N(C)C(=O)Nc2nc(OCC(F)(F)F)cc(OCC(F)(F)F)n2)c1 [Compound 34] | – | – | 80 to 100 |
| O=C(Nc1nc(OCC(F)(F)F)cc(OCC(F)(F)F)n1)Nc1sc(Cl)c(Cl)c1Cl [Compound 44] | 80 to 100 | – | 80 to 100 |
| CN(C(=O)Nc1nc(OCC(F)(F)F)cc(OCC(F)(F)F)n1)c1cc(C#N)cs1 [Compound 38] | – | – | 80 to 100 |
| COCN(C(=O)Nc1ccc(C(F)(F)F)s1)c1nc(OCC(F)(F)F)cc(OCC(F)(F)F)n1 [Compound 4, 3-(methoxymethyl)-3-(4,6-bis(2,2,2-trifluoroethoxy)pyrimidin-2-yl)-1-(5-(trifluoromethyl)thiophen-2-yl)urea] | 80 to 100 | 80 to 100 | – |
| CN(C(=O)Nc1nc(OCC(F)(F)F)cc(OCC(F)(F)F)n1)c1sccc1Cl [Compound 28] | < 80 | – | – |
| COc1ccsc1N(C)C(=O)Nc1nc(OCC(F)(F)F)cc(OCC(F)(F)F)n1 [Compound 36] | – | – | < 80 |
| Cc1ccc(N(C)C(=O)Nc2nc(OCC(F)(F)F)cc(OCC(F)(F)F)n2)s1 [Compound 39] | – | – | 80 to 100 |
